How the values were obtained:
[1] = target: human CB1 receptor (hCB1) (Homo sapiens, UniProt P21554); assay: cell-based; format: cell-based
Method in brief: (§1)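 Readout: LANCE TR-FRET cAMP, back-calculated from a concurrent standard curve and scaled between forskolin-only and forskolin + 1 μM CP55,940 wells. EC50 and intrinsic activity came from four-parameter fits.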

rat CB2 receptor (rCB2) = target: T1, rat CB2 receptor (rCB2) (Rattus norvegicus, UniProt Q9QZN9); assay: cell-based; format: cell-based; settings: for +/− RCB2: agonist or inverse agonist at rCB2
T1 sequence (Q9QZN9 1-360): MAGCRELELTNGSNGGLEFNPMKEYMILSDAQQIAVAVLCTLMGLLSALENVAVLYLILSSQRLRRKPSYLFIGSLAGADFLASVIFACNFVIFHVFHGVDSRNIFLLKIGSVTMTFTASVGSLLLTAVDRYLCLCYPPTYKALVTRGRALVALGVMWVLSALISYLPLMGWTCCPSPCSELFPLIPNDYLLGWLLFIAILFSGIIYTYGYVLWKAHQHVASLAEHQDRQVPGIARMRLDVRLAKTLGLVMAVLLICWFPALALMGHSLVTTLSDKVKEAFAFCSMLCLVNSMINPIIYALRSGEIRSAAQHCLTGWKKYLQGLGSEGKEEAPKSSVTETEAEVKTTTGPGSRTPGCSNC
Method in brief: as §1

human CB1 receptor (hCB1), sequence (P21554 whole entry): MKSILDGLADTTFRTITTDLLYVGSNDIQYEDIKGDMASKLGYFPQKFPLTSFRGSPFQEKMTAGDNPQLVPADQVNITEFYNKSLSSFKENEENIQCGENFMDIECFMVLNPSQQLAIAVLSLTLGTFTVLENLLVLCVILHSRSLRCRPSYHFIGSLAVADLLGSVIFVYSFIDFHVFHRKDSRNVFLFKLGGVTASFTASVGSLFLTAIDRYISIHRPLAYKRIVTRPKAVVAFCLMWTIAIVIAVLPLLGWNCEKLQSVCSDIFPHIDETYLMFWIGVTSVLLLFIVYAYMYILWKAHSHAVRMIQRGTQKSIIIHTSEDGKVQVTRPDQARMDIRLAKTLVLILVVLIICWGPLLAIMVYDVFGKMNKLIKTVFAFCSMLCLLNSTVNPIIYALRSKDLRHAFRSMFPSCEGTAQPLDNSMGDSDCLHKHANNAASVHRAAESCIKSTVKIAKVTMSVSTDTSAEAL

## CNC(=O)[C@@H](NC(=O)c1nc(-c2ccccc2)n2c1CN(c1cncc(Cl)n1)CC2)C(C)(C)C [Compound 300, (S)-7-(6-chloropyrazin-2-yl)-N-(3,3-dimethyl-1-(methylamino)-1-oxobutan-2-yl)-3-phenyl-5,6,7,8-tetrahydroimidazo[1,5-a]pyrazine-1-carboxamide]
[1]; agonist or inverse agonist at hCB1
  +/− HCB1: +
Rat CB2 receptor (rCB2)
  +/− RCB2: −

## CNC(=O)[C@@H](NC(=O)c1nc(-c2ccccc2)n2c1CN(c1cnccn1)CC2)C(C)(C)C [Compound 301, (S)-N-(3,3-dimethyl-1-(methylamino)-1-oxobutan-2-yl)-3-phenyl-7-(pyrazin-2-yl)-5,6,7,8-tetrahydroimidazo[1,5-a]pyrazine-1-carboxamide]
[1]
  EC50: > 10 µM
Rat CB2 receptor (rCB2)
  EC50: > 10 µM

## CNC(=O)[C@H](NC(=O)c1nc(-c2ccccc2)n2c1CN(C)CC2)C(C)(C)C [Compound 302, (R)-N-(3,3-dimethyl-1-(methylamino)-1-oxobutan-2-yl)-7-methyl-3-phenyl-5,6,7,8-tetrahydroimidazo[1,5-a]pyrazine-1-carboxamide]
[1]
  EC50: > 10 µM
Rat CB2 receptor (rCB2)
  EC50: > 10 µM

## CNC(=O)[C@@H](NC(=O)c1nc(C2CCCC2)n2c1CN(C)CC2)C(C)(C)C [Compound 303, (S)-3-cyclopentyl-N-(3,3-dimethyl-1-(methylamino)-1-oxobutan-2-yl)-7-methyl-5,6,7,8-tetrahydroimidazo [1,5-a]pyrazine-1-carboxamide]
[1]
  EC50: > 10 µM
Rat CB2 receptor (rCB2)
  +/− RCB2: +

## CCCc1nc(C(=O)N[C@H](C(=O)NC)C(C)(C)C)c2n1CCN(C)C2 [Compound 304, (S)-N-(3,3-dimethyl-1-(methylamino)-1-oxobutan-2-yl)-7-methyl-3-propyl-5,6,7,8-tetrahydroimidazo[1,5-a]pyrazine-1-carboxamide]
[1]
  EC50: > 10 µM
Rat CB2 receptor (rCB2)
  +/− RCB2: +

## CNC(=O)[C@@H](NC(=O)c1nc(C2CCCCC2)n2c1CN(C)CC2)C(C)(C)C [Compound 305, (S)-3-cyclohexyl-N-(3,3-dimethyl-1-(methylamino)-1-oxobutan-2-yl)-7-methyl-5,6,7,8-tetrahydroimidazo[1,5-a]pyrazine-1-carboxamide]
[1]
  EC50: > 10 µM
Rat CB2 receptor (rCB2)
  +/− RCB2: +

## CNC(=O)[C@@H](NC(=O)c1nc(CC(C)C)n2c1CN(C)CC2)C(C)(C)C [Compound 306, (S)-N-(3,3-dimethyl-1-(methylamino)-1-oxobutan-2-yl)-3-isobutyl-7-methyl-5,6,7,8-tetrahydroimidazo[1,5-a]pyrazine-1-carboxamide]
[1]
  EC50: > 10 µM
Rat CB2 receptor (rCB2)
  +/− RCB2: +

## CNC(=O)[C@@H](NC(=O)c1nc(CCCN2CCCCC2)n2c1CN(C)CC2)C(C)(C)C [Compound 307, (S)-N-(3,3-dimethyl-1-(methylamino)-1-oxobutan-2-yl)-7-methyl-3-(3-(piperidin-1-yl)propyl)-5,6,7,8-tetrahydroimidazo[1,5-a]pyrazine-1-carboxamide]
[1]
  EC50: > 10 µM
Rat CB2 receptor (rCB2)
  +/− RCB2: +

## CNC(=O)[C@@H](NC(=O)c1nc(CCCN2CCCC2)n2c1CN(C)CC2)C(C)(C)C [Compound 308, (S)-N-(3,3-dimethyl-1-(methylamino)-1-oxobutan-2-yl)-7-methyl-3-(3-(pyrrolidin-1-yl)propyl)-5,6,7,8-tetrahydroimidazo[1,5-a]pyrazine-1-carboxamide]
[1]
  EC50: > 10 µM
Rat CB2 receptor (rCB2)
  +/− RCB2: −

## CNC(=O)[C@@H](NC(=O)c1nc(CCCN2CCOCC2)n2c1CN(C)CC2)C(C)(C)C [Compound 309, (S)-N-(3,3-dimethyl-1-(methylamino)-1-oxobutan-2-yl)-7-methyl-3-(3-morpholinopropyl)-5,6,7,8-tetrahydroimidazo[1,5-a]pyrazine-1-carboxamide]
[1]
  EC50: > 10 µM
Rat CB2 receptor (rCB2)
  EC50: > 10 µM

## CCc1nc(C(=O)N[C@H](C(=O)NC)C(C)(C)C)c2n1CCN(C)C2 [Compound 310, (S)-N-(3,3-dimethyl-1-(methylamino)-1-oxobutan-2-yl)-3-ethyl-7-methyl-5,6,7,8-tetrahydroimidazo[1,5-a]pyrazine-1-carboxamide]
[1]
  EC50: > 10 µM
Rat CB2 receptor (rCB2)
  +/− RCB2: −

## CNC(=O)[C@@H](NC(=O)c1nc(-c2ccccc2)n2c1CN(C(=O)OC(C)(C)C)CCC2)C(C)(C)C [Compound 312, (S)-tert-butyl 1-(3,3-dimethyl-1-(methylamino)-1-oxobutan-2-ylcarbamoyl)-3-phenyl-6,7-dihydro-5H-imidazo[1,5-a][1,4]diazepine-8(9H)-carboxylate]
[1]
  EC50: > 10 µM
Rat CB2 receptor (rCB2)
  +/− RCB2: −

## CNC(=O)[C@@H](NC(=O)c1nc(-c2ccc(Cl)cc2F)n2c1CN(C(=O)OC(C)(C)C)CCC2)C(C)(C)C [Compound 313]
[1]
  EC50: > 10 µM
Rat CB2 receptor (rCB2)
  +/− RCB2: −

## CNC(=O)[C@@H](NC(=O)c1nc(-c2ccccc2)n2c1CNCCC2)C(C)(C)C [Compound 314, (S)-N-(3,3-dimethyl-1-(methylamino)-1-oxobutan-2-yl)-3-phenyl-6,7,8,9-tetrahydro-5H-imidazo[1,5-a][1,4]diazepine-1-carboxamide]
[1]
  EC50: > 10 µM
Rat CB2 receptor (rCB2)
  +/− RCB2: −

## CNC(=O)[C@@H](NC(=O)c1nc(-c2ccc(Cl)cc2F)n2c1CNCCC2)C(C)(C)C [Compound 315, (S)-3-(4-chloro-2-fluorophenyl)-N-(3,3-dimethyl-1-(methylamino)-1-oxobutan-2-yl)-6,7,8,9-tetrahydro-5H-imidazo[1,5-a][1,4]diazepine-1-carboxamide]
[1]
  EC50: > 10 µM
Rat CB2 receptor (rCB2)
  EC50: > 10 µM

## CNC(=O)[C@@H](NC(=O)c1nc(-c2ccc(C)cc2F)n2c1CNCCC2)C(C)(C)C [Compound 316, (S)-N-(3,3-dimethyl-1-(methylamino)-1-oxobutan-2-yl)-3-(2-fluoro-4-methylphenyl)-6,7,8,9-tetrahydro-5H-imidazo[1,5-a][1,4]diazepine-1-carboxamide]
[1]
  EC50: > 10 µM
Rat CB2 receptor (rCB2)
  +/− RCB2: −

## CCN1CCCn2c(-c3ccccc3)nc(C(=O)N[C@H](C(=O)NC)C(C)(C)C)c2C1 [Compound 318, (S)-N-(3,3-dimethyl-1-(methylamino)-1-oxobutan-2-yl)-8-ethyl-3-phenyl-6,7,8,9-tetrahydro-5H-imidazo[1,5-a][1,4]diazepine-1-carboxamide]
[1]
  EC50: > 10 µM
Rat CB2 receptor (rCB2)
  +/− RCB2: +

## CNC(=O)[C@@H](NC(=O)c1nc(-c2ccccc2)n2c1CN(C(C)C)CCC2)C(C)(C)C [Compound 319, (S)-N-(3,3-dimethyl-1-(methylamino)-1-oxobutan-2-yl)-8-isopropyl-3-phenyl-6,7,8,9-tetrahydro-5H-imidazo[1,5-a][1,4]diazepine-1-carboxamide]
[1]
  EC50: > 10 µM
Rat CB2 receptor (rCB2)
  EC50: > 10 µM

## CNC(=O)[C@@H](NC(=O)c1nc(-c2ccccc2)n2c1CN(CC(C)C)CCC2)C(C)(C)C [Compound 320, (S)-N-(3,3-dimethyl-1-(methylamino)-1-oxobutan-2-yl)-8-isobutyl-3-phenyl-6,7,8,9-tetrahydro-5H-imidazo[1,5-a][1,4]diazepine-1-carboxamide]
[1]
  EC50: > 10 µM
Rat CB2 receptor (rCB2)
  +/− RCB2: −

## CNC(=O)[C@@H](NC(=O)c1nc(-c2ccccc2)n2c1CN(CC1CC1)CCC2)C(C)(C)C [Compound 321, (S)-8-(cyclopropylmethyl)-N-(3,3-dimethyl-1-(methylamino)-1-oxobutan-2-yl)-3-phenyl-6,7,8,9-tetrahydro-5H-imidazo[1,5-a][1,4]diazepine-1-carboxamide]
[1]
  EC50: > 10 µM
Rat CB2 receptor (rCB2)
  +/− RCB2: −

## CNC(=O)[C@@H](NC(=O)c1nc(-c2ccc(Cl)cc2F)n2c1CN(CC(C)C)CCC2)C(C)(C)C [Compound 322, (S)-3-(4-chloro-2-fluorophenyl)-N-(3,3-dimethyl-1-(methylamino)-1-oxobutan-2-yl)-8-isobutyl-6,7,8,9-tetrahydro-5H-imidazo[1,5-a][1,4]diazepine-1-carboxamide]
[1]
  EC50: > 10 µM
Rat CB2 receptor (rCB2)
  +/− RCB2: −

## CNC(=O)[C@@H](NC(=O)c1nc(-c2ccc(C)cc2F)n2c1CN(CC1CC1)CCC2)C(C)(C)C [Compound 323, (S)-8-(cyclopropylmethyl)-N-(3,3-dimethyl-1-(methylamino)-1-oxobutan-2-yl)-3-(2-fluoro-4-methylphenyl)-6,7,8,9-tetrahydro-5H-imidazo[1,5-a][1,4]diazepine-1-carboxamide]
[1]
  EC50: > 10 µM
Rat CB2 receptor (rCB2)
  +/− RCB2: −

## CNC(=O)[C@@H](NC(=O)c1nc(-c2ccccc2OC)n2c1CN(C)CCC2)C(C)(C)C [Compound 325, (S)-N-(3,3-dimethyl-1-(methylamino)-1-oxobutan-2-yl)-3-(2-methoxyphenyl)-8-methyl-6,7,8,9-tetrahydro-5H-imidazo[1,5-a][1,4]diazepine-1-carboxamide]
[1]
  EC50: > 10 µM
Rat CB2 receptor (rCB2)
  +/− RCB2: +

## CNC(=O)[C@@H](NC(=O)c1nc(-c2cc(Cl)ccc2OC)n2c1CN(C)CCC2)C(C)(C)C [Compound 327, (S)-3-(5-chloro-2-methoxyphenyl)-N-(3,3-dimethyl-1-(methylamino)-1-oxobutan-2-yl)-8-methyl-6,7,8,9-tetrahydro-5H-imidazo[1,5-a][1,4]diazepine-1-carboxamide]
[1]
  EC50: > 10 µM
Rat CB2 receptor (rCB2)
  +/− RCB2: +

## CNC(=O)[C@@H](NC(=O)c1nc(-c2cccc(C#N)c2)n2c1CN(C)CCC2)C(C)(C)C [Compound 328, (S)-3-(3-cyanophenyl)-N-(3,3-dimethyl-1-(methylamino)-1-oxobutan-2-yl)-8-methyl-6,7,8,9-tetrahydro-5H-imidazo[1,5-a][1,4]diazepine-1-carboxamide]
[1]
  EC50: > 10 µM
Rat CB2 receptor (rCB2)
  +/− RCB2: +
